Measured values: patent US10508086B2 (CANCER RESEARCH TECHNOLOGY LIMITED, priority 2014, dated 2019)

What was measured:
Human Full Length PARG = Human Full Length PARG (Homo sapiens (Human), UniProt Q86W56); experiment: PARG in vitro enzyme assay (TR-FRET); format: biochemical; conditions: read-out: PARG_EC50_ENZYME
Summary of the method: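 Full-length human PARG ([…]) incubated with ribosylated PARP substrate (4.5 nM) for 10 min at room temperature in Tris pH 7.4 buffer with EDTA, EGTA, DTT, KCl. Detection by TR-FRET using anti-6HIS XL665 (14 nM final) and streptavidin europium cryptate (0.75 nM final) after 60 min; Em665/Em620 ratio converted to percent inhibition.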

PARG in HeLa cell line = PARG in HeLa cell line (Homo sapiens (Human), UniProt Q86W56); experiment: PARG cell assay (nuclear PAR chains after MMS, immunofluorescence); format: cell-based; conditions: HeLa cells, MMS 50 μg/mL; read-out: PARG Cell IC50 Geomean
Method: This method is based on the detection of endogenous levels of poly (ADP) ribose chains present in the nucleus of HeLa cell line using indirect immunofluorescence. MMS stimulation increases PAR chains for up to 25 mins. After that point, PARG is active and breaks down the PAR chains, until by one hour after stimulation no PAR chains are detectable. Inhibition of PARG maintains PAR chains.
Briefly, following compound treatment and treatment with the DNA damaging agent methylmethanesulfonate (MMS), the cell monolayer is fixed, then permeabilised and incubated with a mouse monoclonal antibody raised against multimers of poly(ADP) ribose. After an overnight incubation, excess antibody is removed by washing and an Alexafluor 488-linked secondary antibody which recognises the mouse monoclonal is added together with a nuclear stain (Hoechst 33342). Images of the cells are then captured and analysed on a High Content Screening platform and the total intensity of the nuclear fluorescent signal at […] is quantified.
HeLa cells, seeded in 384-well plates, at 4000/well in 30 μL RPMI 1640 media, supplemented with 10% FBS and 2 mM Glutamax, were incubated overnight at 37° C., 5% CO2.
The following day, cells were dosed in quadruplicate with compound (10 point dose response) and incubated for 1 h at 37° C., 5% CO2.
At the end of the 1 h dosing period, MMS was added to duplicates at a final concentration of 50 μg/mL, for a further hour.
Media was tipped off and the cells fixed with 50 μL ice-cold 95% MetOH/PBS for 15 mins at −20° C. Following a PBS wash, 50 μL PBS/0.1% Triton was added to the cells for 20 mins. Following another PBS wash, anti-PAR antibody (Calbiochem AM80) was diluted 1:4000 in a buffer (PBS+0.5% FBS+0.05% Tween20) and added to the cells and incubated overnight at 4° C.
The following day, cells were washed three times with PBS and then incubated for 1 hr with secondary antibody (Alexa Fluor® 488 goat anti mouse IgG (H+L)) diluted 1:1000 and Hoechst diluted 1:5000 in buffer (5% FBS in PBS+0.05% Tween20).
Cells were washed three times with PBS and the plate sealed with a light-proof seal.
Images of the cells were captured on a ThermoFisher Celllnsight and the mean total intensity of spots fluorescent at 485 nm in the nucleus was reported.

Sequence of PARG in HeLa cell line (Q86W56 whole entry): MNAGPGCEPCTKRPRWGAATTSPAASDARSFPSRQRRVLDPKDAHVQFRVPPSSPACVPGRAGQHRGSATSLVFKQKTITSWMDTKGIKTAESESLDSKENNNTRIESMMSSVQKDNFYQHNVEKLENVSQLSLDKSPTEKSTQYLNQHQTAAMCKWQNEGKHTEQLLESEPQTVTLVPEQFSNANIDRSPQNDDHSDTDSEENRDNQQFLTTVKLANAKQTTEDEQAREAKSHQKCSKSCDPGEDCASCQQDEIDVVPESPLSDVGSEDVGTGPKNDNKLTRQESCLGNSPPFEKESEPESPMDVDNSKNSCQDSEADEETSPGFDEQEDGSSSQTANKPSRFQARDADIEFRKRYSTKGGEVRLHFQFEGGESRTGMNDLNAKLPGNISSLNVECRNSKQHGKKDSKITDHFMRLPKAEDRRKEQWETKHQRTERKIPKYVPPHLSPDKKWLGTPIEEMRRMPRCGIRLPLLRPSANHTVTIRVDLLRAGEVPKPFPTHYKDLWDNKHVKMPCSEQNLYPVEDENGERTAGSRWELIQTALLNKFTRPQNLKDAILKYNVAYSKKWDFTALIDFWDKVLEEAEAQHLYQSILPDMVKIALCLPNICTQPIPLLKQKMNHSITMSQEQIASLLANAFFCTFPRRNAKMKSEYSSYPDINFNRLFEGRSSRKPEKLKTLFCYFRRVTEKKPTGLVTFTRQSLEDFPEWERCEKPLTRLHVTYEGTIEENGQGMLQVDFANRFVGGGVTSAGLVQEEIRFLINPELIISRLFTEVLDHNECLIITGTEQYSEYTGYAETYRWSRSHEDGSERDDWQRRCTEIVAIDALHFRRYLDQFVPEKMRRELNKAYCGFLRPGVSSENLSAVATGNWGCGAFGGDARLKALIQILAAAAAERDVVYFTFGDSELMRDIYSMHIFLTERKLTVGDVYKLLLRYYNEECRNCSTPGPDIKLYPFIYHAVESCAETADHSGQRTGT
Sequence of Human Full Length PARG (Q86W56 whole entry): as above

Compound | EC50 (Human Full Length PARG) [µM] | IC50 (PARG in HeLa cell line) [µM]
CCn1c(=O)n(-c2nnc(C)s2)c2cc(S(=O)(=O)NC3(C#N)CC3)ccc21 [Example 158, N-(1-Cyanocyclopropyl)-1-ethyl-3-(5-methyl-1,3,4-thiadiazol-2-yl)-2-oxo-benzimidazole-5-sulfonamide] | 1.04 | 0.486
CCn1c(=O)n(-c2nnc(C)s2)c2cc(S(=O)(=O)NC3(CF)CC3)ccc21 [Example 159, 1-Ethyl-N-[1-(fluoromethyl)cyclopropyl]-3-(5-methyl-1,3,4-thiadiazol-2-yl)-2-oxo-benzimidazole-5-sulfonamide] | 0.59 | 0.349
COCCn1c(=O)n(-c2nnc(C)s2)c2cc(S(=O)(=O)NC3(CF)CC3)ccc21 [Example 160, N-[1-(Fluoromethyl)cyclopropyl]-1-(2-methoxyethyl)-3-(5-methyl-1,3,4-thiadiazol-2-yl)-2-oxo-benzimidazole-5-sulfonamide] | 0.616 | 0.453
COCCn1c(=O)n(-c2nnc(C)s2)c2cc(S(=O)(=O)NC3(C#N)CC3)ccc21 [Example 161, N-(1-Cyanocyclopropyl)-1-(2-methoxyethyl)-3-(5-methyl-1,3,4-thiadiazol-2-yl)-2-oxo-benzimidazole-5-sulfonamide] | 0.616 | 0.491
COCCn1c(=O)n(-c2nnc(C(F)F)s2)c2cc(S(=O)(=O)NC3(C#N)CC3)ccc21 [Example 162, N-(1-Cyanocyclopropyl)-3-[5-(difluoromethyl)-1,3,4-thiadiazol-2-yl]-1-(2-methoxyethyl)-2-oxo-benzimidazole-5-sulfonamide] | 0.26 | 0.176
Cc1cc(Cn2c(=O)n(-c3nnc(C(F)F)s3)c3cc(S(=O)(=O)NC4(C#N)CC4)ccc32)n(C)n1 [Example 165, N-(1-Cyanocyclopropyl)-3-[5-(difluoromethyl)-1,3,4-thiadiazol-2-yl]-1-[(2,5-dimethylpyrazol-3-yl)methyl]-2-oxo-benzimidazole-5-sulfonamide] | 0.234 | 0.127
Cc1nnc(-n2c(=O)n(CC#N)c3ccc(S(=O)(=O)NC4(C)CC4)cc32)s1 [Example 166, 1-(Cyanomethyl)-N-(1-methylcyclopropyl)-3-(5-methyl-1,3,4-thiadiazol-2-yl)-2-oxo-benzimidazole-5-sulfonamide] | 0.784 | 0.291

Now those with a lower EC50 (Human Full Length PARG), led by results:

EC50 (Human Full Length PARG) [µM] | IC50 (PARG in HeLa cell line) [µM] | Compound
0.09 | 0.104 | COCCn1c(=O)n(-c2nnc(C(F)F)s2)c2cc(S(=O)(=O)NC3(CF)CC3)ccc21 [Example 163, 3-[5-(Difluoromethyl)-1,3,4-thiadiazol-2-yl]-N-[1-(fluoromethyl)cyclopropyl]-1-(2-methoxyethyl)-2-oxo-benzimidazole-5-sulfonamide]
0.203 | 0.109 | Cc1cc(Cn2c(=O)n(-c3nnc(C(F)F)s3)c3cc(S(=O)(=O)NC4(CF)CC4)ccc32)n(C)n1 [Example 164, 3-[5-(Difluoromethyl)-1,3,4-thiadiazol-2-yl]-1-[(2,5-dimethylpyrazol-3-yl)methyl]-N-[1-(fluoromethyl)cyclopropyl]-2-oxo-benzimidazole-5-sulfonamide]
0.074 | 0.046 | COCCn1c(=O)n(-c2nnc(C(F)F)s2)c2cc(S(=O)(=O)NC3(CF)CC3)c(F)cc21 [Example 167, 3-[5-(Difluoromethyl)-1,3,4-thiadiazol-2-yl]-6-fluoro-N-[1-(fluoromethyl)cyclopropyl]-1-(2-methoxyethyl)-2-oxo-benzimidazole-5-sulfonamide]
0.099 | 0.032 | COCCn1c(=O)n(-c2nnc(C(F)F)s2)c2cc(S(=O)(=O)NC3(C)CC3)c(F)cc21 [Example 168, 3-[5-(Difluoromethyl)-1,3,4-thiadiazol-2-yl]-6-fluoro-1-(2-methoxyethyl)-N-(1-methylcyclopropyl)-2-oxo-benzimidazole-5-sulfonamide]
